Data: publication PMC4561207 (Child's nervous system : ChNS : official journal of the …, 2015)

Test: Toxicities attributed to Cediranib
Format: in vivo, human

Structure (SMILES): COc1cc2c(Oc3ccc4[nH]c(C)cc4c3F)ncnc2cc1OCCCN1CCCC1 [cediranib, Cediranib]
- diarrhea, number of patients (all grades): Thirty-two
- Abdominal pain, events (patients) (grade 1 TOX): 5(5)
- Acidosis, events (patients) (grade 1 TOX): 1(1)
- Alanine aminotransferase increased, events (patients) (grade 1 TOX): 41(22)
- Alkaline phosphatase increased, events (patients) (grade 1 TOX): 2(2)
- Anal mucositis, events (patients) (grade 1 TOX): 1(1)
- Anal pain, events (patients) (grade 1 TOX): 1(1)
- Anemia, events (patients) (grade 1 TOX): 2(2)
- Anorexia, events (patients) (grade 1 TOX): 8(8)
- Aspartate aminotransferase increased, events (patients) (grade 1 TOX): 37(19)
- Back pain, events (patients) (grade 1 TOX): 1(1)
- Blood bilirubin increased, events (patients) (grade 1 TOX): 13(7)
- Bone pain, events (patients) (grade 1 TOX): 1(1)
- Cardiac troponin I increased, events (patients) (grade 1 TOX): 1(1)
- Cholesterol high, events (patients) (grade 1 TOX): 1(1)
- Chronic kidney disease, events (patients) (grade 1 TOX): 1(1)
- Constipation, events (patients) (grade 1 TOX): 5(2)
- Cough, events (patients) (grade 1 TOX): 1(1)
- Creatinine increased, events (patients) (grade 1 TOX): 1(1)
- Dehydration, events (patients) (grade 1 TOX): 1(1)
- Depression, events (patients) (grade 1 TOX): 1(1)
- Diarrhea, events (patients) (grade 1 TOX): 43(30)
- Dizziness, events (patients) (grade 1 TOX): 3(3)
- Dry mouth, events (patients) (grade 1 TOX): 1(1)
- Dry skin, events (patients) (grade 1 TOX): 1(1)
- Dyspepsia, events (patients) (grade 1 TOX): 3(3)
- Edema face, events (patients) (grade 1 TOX): 1(1)
- Edema limbs, events (patients) (grade 1 TOX): 1(1)
- Endocrine disorders - Other, specify, events (patients) (grade 1 TOX): 1(1)
- Epistaxis, events (patients) (grade 1 TOX): 5(4)
- Fatigue, events (patients) (grade 1 TOX): 7(7)
- Fecal incontinence, events (patients) (grade 1 TOX): 1(1)
- Fever, events (patients) (grade 1 TOX): 1(1)
- GGT increased, events (patients) (grade 1 TOX): 1(1)
- Gastritis, events (patients) (grade 1 TOX): 1(1)
- Gastrointestinal disorders - Other, specify, events (patients) (grade 1 TOX): 1(1)
- Headache, events (patients) (grade 1 TOX): 5(4)
- Hematuria, events (patients) (grade 1 TOX): 5(3)
- Hemoglobin increased, events (patients) (grade 1 TOX): 6(2)
- Hoarseness, events (patients) (grade 1 TOX): 1(1)
- Hypercalcemia, events (patients) (grade 1 TOX): 3(2)
- Hyperglycemia, events (patients) (grade 1 TOX): 7(6)
- Hyperkalemia, events (patients) (grade 1 TOX): 2(2)
- Hypermagnesemia, events (patients) (grade 1 TOX): 7(5)
- Hypernatremia, events (patients) (grade 1 TOX): 5(4)
- Hypertension, events (patients) (grade 1 TOX): 19(13)
- Hyperthyroidism, events (patients) (grade 1 TOX): 2(2)
- Hypoalbuminemia, events (patients) (grade 1 TOX): 20(13)
- Hypocalcemia, events (patients) (grade 1 TOX): 16(8)
- Hypoglycemia, events (patients) (grade 1 TOX): 2(2)
- Hypokalemia, events (patients) (grade 1 TOX): 14(11)
- Hypomagnesemia, events (patients) (grade 1 TOX): 6(4)
- Hyponatremia, events (patients) (grade 1 TOX): 9(5)
- Hypophosphatemia, events (patients) (grade 1 TOX): 10(8)
- Hypothyroidism, events (patients) (grade 1 TOX): 10(10)
- INR increased, events (patients) (grade 1 TOX): 1(1)
- Investigations - Other, specify, events (patients) (grade 1 TOX): 2(2)
- Joint effusion, events (patients) (grade 1 TOX): 1(1)
- Leukoencephalopathy, events (patients) (grade 1 TOX): 1(1)
- Lymphocyte count decreased, events (patients) (grade 1 TOX): 11(8)
- Malaise, events (patients) (grade 1 TOX): 2(1)
- Mucositis oral, events (patients) (grade 1 TOX): 1(1)
- Myalgia, events (patients) (grade 1 TOX): 1(1)
- Nausea, events (patients) (grade 1 TOX): 15(10)
- Neutrophil count decreased, events (patients) (grade 1 TOX): 11(8)
- Non-cardiac chest pain, events (patients) (grade 1 TOX): 1(1)
- Oral pain, events (patients) (grade 1 TOX): 2(2)
- Pain in extremity, events (patients) (grade 1 TOX): 3(3)
- Palmar-plantar erythrodysesthesia syndrome, events (patients) (grade 1 TOX): 4(4)
- Platelet count decreased, events (patients) (grade 1 TOX): 22(17)
- Proteinuria, events (patients) (grade 1 TOX): 20(13)
- Rash acneiform, events (patients) (grade 1 TOX): 2(2)
- Rash maculo-papular, events (patients) (grade 1 TOX): 5(5)
- Rectal pain, events (patients) (grade 1 TOX): 1(1)
- Renal and urinary disorders - Other, specify, events (patients) (grade 1 TOX): 1(1)
- Serum amylase increased, events (patients) (grade 1 TOX): 1(1)
- Skin and subcutaneous tissue disorders - Other, specify, events (patients) (grade 1 TOX): 1(1)
- Stomach pain, events (patients) (grade 1 TOX): 2(2)
- Urinary frequency, events (patients) (grade 1 TOX): 1(1)
- Urinary retention, events (patients) (grade 1 TOX): 1(1)
- Vascular disorders - Other, specify, events (patients) (grade 1 TOX): 2(2)
- Voice alteration, events (patients) (grade 1 TOX): 2(2)
- Vomiting, events (patients) (grade 1 TOX): 23(12)
- Weight loss, events (patients) (grade 1 TOX): 1(1)
- White blood cell decreased, events (patients) (grade 1 TOX): 13(11)
- Abdominal pain, events (patients) (grade 2 TOX): 5(5)
- Alanine aminotransferase increased, events (patients) (grade 2 TOX): 17(9)
- Anorexia, events (patients) (grade 2 TOX): 5(5)
- Arthralgia, events (patients) (grade 2 TOX): 1(1)
- Aspartate aminotransferase increased, events (patients) (grade 2 TOX): 4(4)
- Back pain, events (patients) (grade 2 TOX): 1(1)
- Bone pain, events (patients) (grade 2 TOX): 1(1)
- Constipation, events (patients) (grade 2 TOX): 1(1)
- Dehydration, events (patients) (grade 2 TOX): 1(1)
- Diarrhea, events (patients) (grade 2 TOX): 16(11)
- Dizziness, events (patients) (grade 2 TOX): 2(1)
- Fatigue, events (patients) (grade 2 TOX): 9(9)
- Flushing, events (patients) (grade 2 TOX): 3(1)
- Gastrointestinal disorders - Other, specify, events (patients) (grade 2 TOX): 1(1)
- Headache, events (patients) (grade 2 TOX): 3(3)
- Hyperglycemia, events (patients) (grade 2 TOX): 2(2)
- Hypertension, events (patients) (grade 2 TOX): 28(28)
- Hypoalbuminemia, events (patients) (grade 2 TOX): 6(4)
- Hypocalcemia, events (patients) (grade 2 TOX): 1(1)
- Hypoglycemia, events (patients) (grade 2 TOX): 1(1)
- Hypomagnesemia, events (patients) (grade 2 TOX): 1(1)
- Hypophosphatemia, events (patients) (grade 2 TOX): 4(2)
- Hypothyroidism, events (patients) (grade 2 TOX): 10(10)
- Hypoxia, events (patients) (grade 2 TOX): 1(1)
- Intracranial hemorrhage, events (patients) (grade 2 TOX): 4(4)
- Lipase increased, events (patients) (grade 2 TOX): 1(1)
- Lymphocyte count decreased, events (patients) (grade 2 TOX): 7(5)
- Mucositis oral, events (patients) (grade 2 TOX): 2(2)
- Myalgia, events (patients) (grade 2 TOX): 1(1)
- Nausea, events (patients) (grade 2 TOX): 3(3)
- Neutrophil count decreased, events (patients) (grade 2 TOX): 7(4)
- Pain in extremity, events (patients) (grade 2 TOX): 1(1)
- Pain, events (patients) (grade 2 TOX): 1(1)
- Palmar-plantar erythrodysesthesia syndrome, events (patients) (grade 2 TOX): 10(7)
- Pericardial effusion, events (patients) (grade 2 TOX): 1(1)
- Peripheral motor neuropathy, events (patients) (grade 2 TOX): 1(1)
- Platelet count decreased, events (patients) (grade 2 TOX): 3(3)
- Pleural effusion, events (patients) (grade 2 TOX): 1(1)
- Proteinuria, events (patients) (grade 2 TOX): 13(12)
- Respiratory, thoracic and mediastinal disorders - Other, specify, events (patients) (grade 2 TOX): 1(1)
- Reversible posterior leukoencephalopathy syndrome, events (patients) (grade 2 TOX): 1(1)
- Seizure, events (patients) (grade 2 TOX): 1(1)
- Skin ulceration, events (patients) (grade 2 TOX): 1(1)
- Vomiting, events (patients) (grade 2 TOX): 3(3)
- Weight loss, events (patients) (grade 2 TOX): 1(1)
- White blood cell decreased, events (patients) (grade 2 TOX): 4(2)
- Alanine aminotransferase increased, events (patients) (grade 3 TOX): 6(5)
- Anemia, events (patients) (grade 3 TOX): 1(1)
- Aspartate aminotransferase increased, events (patients) (grade 3 TOX): 1(1)
- Blurred vision, events (patients) (grade 3 TOX): 1(1)
- Capillary leak syndrome, events (patients) (grade 3 TOX): 1(1)
- Chest wall pain, events (patients) (grade 3 TOX): 1(1)
- Confusion, events (patients) (grade 3 TOX): 1(1)
- Dehydration, events (patients) (grade 3 TOX): 2(2)
- Depressed level of consciousness, events (patients) (grade 3 TOX): 1(1)
- Diarrhea, events (patients) (grade 3 TOX): 2(2)
- Dysphasia, events (patients) (grade 3 TOX): 1(1)
- Enterocolitis, events (patients) (grade 3 TOX): 1(1)
